Experiments:
Assay type in all cases: cell-based
Details in all cases: compounds at 50 nM and 500 nM
WEE1 = target: T1, WEE1 (Homo sapiens, UniProt P30291+Q96SW2); test: Western blot degradation of WEE1 in hPBMCs (24 h)
T1 construct: The supernatant was aspirated as the extracted total cell protein; endogenous in cells; host or cells: human peripheral blood mononuclear cells (hPBMCs)
Summary of the method: (§1)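 Immunoblot densitometry quantifies target loss in hPBMCs after a 24 h compound exposure (50 nM, 500 nM). Percent remaining is normalised band intensity; DC50 is the concentration giving half the DMSO-control band grayscale.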

GSPT1 = target: T2, GSPT1 (Homo sapiens, UniProt P15170+Q96SW2); test: Western blot degradation of GSPT1 in hPBMCs (24 h)
T2 construct: The supernatant was aspirated as the extracted total cell protein; endogenous in cells; host or cells: human peripheral blood mononuclear cells (hPBMCs)
T2 sequence (P15170 whole entry): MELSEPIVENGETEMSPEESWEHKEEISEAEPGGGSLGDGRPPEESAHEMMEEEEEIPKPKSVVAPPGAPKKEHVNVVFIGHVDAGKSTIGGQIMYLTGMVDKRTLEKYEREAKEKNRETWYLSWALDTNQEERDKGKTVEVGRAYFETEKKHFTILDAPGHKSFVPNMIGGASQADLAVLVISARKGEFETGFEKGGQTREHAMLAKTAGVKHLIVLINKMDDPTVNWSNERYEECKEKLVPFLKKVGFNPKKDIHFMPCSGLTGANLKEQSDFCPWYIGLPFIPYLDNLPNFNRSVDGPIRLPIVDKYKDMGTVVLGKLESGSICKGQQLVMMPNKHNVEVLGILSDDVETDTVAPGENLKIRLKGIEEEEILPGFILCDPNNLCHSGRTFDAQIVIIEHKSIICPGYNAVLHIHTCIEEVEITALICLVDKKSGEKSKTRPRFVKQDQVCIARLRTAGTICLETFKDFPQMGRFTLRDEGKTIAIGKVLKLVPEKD
T2 sequence (Q96SW2 whole entry): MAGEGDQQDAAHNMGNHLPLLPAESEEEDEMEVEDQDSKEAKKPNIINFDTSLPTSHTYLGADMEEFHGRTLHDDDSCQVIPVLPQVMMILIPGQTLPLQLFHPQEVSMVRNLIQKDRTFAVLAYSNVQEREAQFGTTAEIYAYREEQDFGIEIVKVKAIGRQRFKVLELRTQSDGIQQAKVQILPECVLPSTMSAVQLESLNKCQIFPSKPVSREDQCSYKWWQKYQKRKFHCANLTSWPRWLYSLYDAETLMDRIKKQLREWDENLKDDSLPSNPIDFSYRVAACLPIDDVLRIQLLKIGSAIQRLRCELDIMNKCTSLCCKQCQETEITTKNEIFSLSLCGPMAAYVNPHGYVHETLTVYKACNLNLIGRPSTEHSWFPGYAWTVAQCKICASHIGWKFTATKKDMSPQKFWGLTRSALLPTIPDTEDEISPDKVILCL
T2 sequence (Q16531 whole entry partner): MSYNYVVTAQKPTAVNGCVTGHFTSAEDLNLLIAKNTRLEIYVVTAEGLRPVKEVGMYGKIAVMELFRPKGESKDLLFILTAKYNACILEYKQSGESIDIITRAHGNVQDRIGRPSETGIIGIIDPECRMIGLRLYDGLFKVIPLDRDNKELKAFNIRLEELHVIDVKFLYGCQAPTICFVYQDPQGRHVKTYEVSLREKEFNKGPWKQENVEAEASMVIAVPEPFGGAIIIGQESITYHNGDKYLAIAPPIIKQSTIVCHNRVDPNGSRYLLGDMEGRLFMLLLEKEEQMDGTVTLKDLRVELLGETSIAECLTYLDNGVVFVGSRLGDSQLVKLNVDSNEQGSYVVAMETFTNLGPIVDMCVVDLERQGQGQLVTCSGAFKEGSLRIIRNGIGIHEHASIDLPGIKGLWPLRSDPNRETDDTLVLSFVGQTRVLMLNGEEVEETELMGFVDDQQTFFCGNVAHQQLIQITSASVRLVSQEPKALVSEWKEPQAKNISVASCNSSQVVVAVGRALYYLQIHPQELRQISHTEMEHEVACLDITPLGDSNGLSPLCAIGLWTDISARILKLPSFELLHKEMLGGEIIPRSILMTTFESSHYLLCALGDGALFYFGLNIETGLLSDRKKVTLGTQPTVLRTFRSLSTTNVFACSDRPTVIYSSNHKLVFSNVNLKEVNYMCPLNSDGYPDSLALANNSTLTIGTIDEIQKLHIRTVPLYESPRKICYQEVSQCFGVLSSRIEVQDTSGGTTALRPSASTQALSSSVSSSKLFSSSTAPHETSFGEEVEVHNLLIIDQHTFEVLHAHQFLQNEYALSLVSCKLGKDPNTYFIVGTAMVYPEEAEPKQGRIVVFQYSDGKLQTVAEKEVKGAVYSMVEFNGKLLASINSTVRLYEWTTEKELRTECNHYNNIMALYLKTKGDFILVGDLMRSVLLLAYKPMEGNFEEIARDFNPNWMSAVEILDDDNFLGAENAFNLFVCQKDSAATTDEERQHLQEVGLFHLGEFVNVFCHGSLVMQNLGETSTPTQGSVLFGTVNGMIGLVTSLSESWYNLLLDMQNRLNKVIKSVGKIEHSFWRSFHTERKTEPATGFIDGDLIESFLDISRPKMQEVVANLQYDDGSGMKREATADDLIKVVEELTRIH
Summary of the method: as §1

IKZF2 = target: T3, IKZF2 (Homo sapiens, UniProt Q96SW2+Q9UKS7); test: Western blot degradation of IKZF2 in hPBMCs (24 h)
T3 construct: The supernatant was aspirated as the extracted total cell protein; endogenous in cells; host or cells: human peripheral blood mononuclear cells (hPBMCs)
T3 sequence (Q9UKS7 whole entry): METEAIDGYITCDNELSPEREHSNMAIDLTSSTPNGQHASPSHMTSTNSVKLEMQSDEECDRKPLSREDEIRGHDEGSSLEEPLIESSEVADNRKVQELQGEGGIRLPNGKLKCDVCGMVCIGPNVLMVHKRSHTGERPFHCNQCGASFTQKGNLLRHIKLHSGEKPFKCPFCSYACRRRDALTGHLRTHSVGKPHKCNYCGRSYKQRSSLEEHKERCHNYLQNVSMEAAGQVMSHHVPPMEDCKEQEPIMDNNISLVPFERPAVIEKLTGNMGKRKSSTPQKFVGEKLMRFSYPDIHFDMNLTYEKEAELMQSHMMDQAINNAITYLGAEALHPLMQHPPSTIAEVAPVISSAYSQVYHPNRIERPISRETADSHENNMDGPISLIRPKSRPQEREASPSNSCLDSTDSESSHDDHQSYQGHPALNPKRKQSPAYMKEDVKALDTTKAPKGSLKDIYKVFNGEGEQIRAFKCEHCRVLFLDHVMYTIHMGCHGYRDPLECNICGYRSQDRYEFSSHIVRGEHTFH
T3 sequence (Q96SW2 whole entry): as the sequence (Q96SW2 whole entry) above
T3 sequence (Q16531 whole entry partner): as the sequence (Q16531 whole entry partner) above
Summary of the method: as §1

IKZF1 = target: T4, IKZF1 (Homo sapiens, UniProt Q13422+Q96SW2); test: Western blot degradation of IKZF1 in hPBMCs (24 h)
T4 construct: The supernatant was aspirated as the extracted total cell protein; endogenous in cells; host or cells: human peripheral blood mononuclear cells (hPBMCs)
T4 sequence (Q13422 whole entry): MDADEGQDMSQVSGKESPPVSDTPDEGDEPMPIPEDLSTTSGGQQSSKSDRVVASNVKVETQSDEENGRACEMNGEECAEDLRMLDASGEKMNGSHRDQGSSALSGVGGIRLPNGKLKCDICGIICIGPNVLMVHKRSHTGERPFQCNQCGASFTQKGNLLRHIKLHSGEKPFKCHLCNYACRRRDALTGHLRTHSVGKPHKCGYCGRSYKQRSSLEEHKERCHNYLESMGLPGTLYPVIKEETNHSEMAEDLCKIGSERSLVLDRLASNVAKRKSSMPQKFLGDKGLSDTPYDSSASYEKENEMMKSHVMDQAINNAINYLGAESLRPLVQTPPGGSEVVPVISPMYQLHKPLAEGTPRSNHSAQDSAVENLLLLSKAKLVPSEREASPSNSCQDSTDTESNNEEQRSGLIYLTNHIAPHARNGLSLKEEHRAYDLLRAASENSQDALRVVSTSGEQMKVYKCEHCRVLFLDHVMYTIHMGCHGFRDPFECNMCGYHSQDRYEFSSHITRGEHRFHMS
T4 sequence (Q96SW2 whole entry): as the sequence (Q96SW2 whole entry) above
T4 sequence (Q16531 whole entry partner): as the sequence (Q16531 whole entry partner) above
Summary of the method: as §1

IKZF3 = target: T5, IKZF3 (Homo sapiens, UniProt Q96SW2+Q9UKT9); test: Western blot degradation of IKZF3 in hPBMCs (24 h)
T5 construct: The supernatant was aspirated as the extracted total cell protein; endogenous in cells; host or cells: human peripheral blood mononuclear cells (hPBMCs)
T5 sequence (Q9UKT9 whole entry): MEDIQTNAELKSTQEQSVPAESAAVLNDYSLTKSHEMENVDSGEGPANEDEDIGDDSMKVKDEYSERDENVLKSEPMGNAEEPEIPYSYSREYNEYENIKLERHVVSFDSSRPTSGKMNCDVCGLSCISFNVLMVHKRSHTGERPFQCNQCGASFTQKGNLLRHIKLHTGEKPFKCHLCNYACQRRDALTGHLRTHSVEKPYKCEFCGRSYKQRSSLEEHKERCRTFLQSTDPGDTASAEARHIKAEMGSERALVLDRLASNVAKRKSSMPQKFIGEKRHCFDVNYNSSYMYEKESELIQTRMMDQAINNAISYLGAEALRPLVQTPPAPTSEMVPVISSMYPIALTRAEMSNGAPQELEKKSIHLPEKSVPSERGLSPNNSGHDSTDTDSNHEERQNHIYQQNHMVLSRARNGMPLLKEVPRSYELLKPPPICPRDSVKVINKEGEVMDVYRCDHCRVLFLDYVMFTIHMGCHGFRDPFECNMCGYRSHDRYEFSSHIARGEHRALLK
T5 sequence (Q96SW2 whole entry): as the sequence (Q96SW2 whole entry) above
T5 sequence (Q16531 whole entry partner): as the sequence (Q16531 whole entry partner) above
Summary of the method: as §1

CK1α = target: T6, CK1α (Homo sapiens, UniProt P48729+Q96SW2); test: Western blot degradation of CK1α in hPBMCs (24 h)
T6 construct: The supernatant was aspirated as the extracted total cell protein; endogenous in cells; host or cells: human peripheral blood mononuclear cells (hPBMCs)
T6 sequence (P48729 whole entry): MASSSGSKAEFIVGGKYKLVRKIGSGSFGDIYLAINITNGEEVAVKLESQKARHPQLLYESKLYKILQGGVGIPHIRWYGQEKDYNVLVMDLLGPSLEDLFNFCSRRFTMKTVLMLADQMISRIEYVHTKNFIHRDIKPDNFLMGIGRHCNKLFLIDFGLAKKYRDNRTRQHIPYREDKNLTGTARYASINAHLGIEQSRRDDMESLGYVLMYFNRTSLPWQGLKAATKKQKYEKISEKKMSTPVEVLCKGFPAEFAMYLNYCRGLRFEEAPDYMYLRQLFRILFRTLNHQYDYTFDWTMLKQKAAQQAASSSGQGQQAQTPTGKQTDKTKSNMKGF
T6 sequence (Q96SW2 whole entry): as the sequence (Q96SW2 whole entry) above
T6 sequence (Q16531 whole entry partner): as the sequence (Q16531 whole entry partner) above
Summary of the method: as §1

Cc1cc(N2CCN(Cc3ccc4c(c3)CN(N3CCC(=O)NC3=O)C4=O)CC2)cc(C)n1 [GT-07033, 1-(5-((4-(2,6-dimethylpyridin-4-yl)piperazin-1-yl)methyl)-1-oxoisoindolin-2-yl)dihydropyrimidine-2,4(1H,3H)-dione]
WEE1 substrate protein remaining % (WEE1): B (80%< substrate protein remaining % ≤100%) | GSPT1 substrate protein remaining % (GSPT1): A (0% ≤ substrate protein remaining % ≤80%) | IKZF2 substrate protein remaining % (IKZF2): B (80%< substrate protein remaining % ≤100%) | IKZF1 substrate protein remaining % (IKZF1): B (80%< substrate protein remaining % ≤100%) | IKZF3 substrate protein remaining % (IKZF3): B (80%< substrate protein remaining % ≤100%) | CK1α substrate protein remaining % (CK1α): B (80%< substrate protein remaining % ≤100%)

O=C1CCN(N2Cc3cc(CN4CCN(c5ncnc(Cl)c5Cl)CC4)ccc3C2=O)C(=O)N1 [GT-07028, 1-(5-((4-(5,6-dichloropyrimidin-4-yl)piperazin-1-yl)methyl)-1-oxoisoindolin-2-yl)dihydropyrimidine-2,4(1H,3H)-dione]
WEE1 substrate protein remaining % (WEE1): A (0% ≤ substrate protein remaining % ≤80%) | GSPT1 substrate protein remaining % (GSPT1): A (0% ≤ substrate protein remaining % ≤80%) | IKZF2 substrate protein remaining % (IKZF2): B (80%< substrate protein remaining % ≤100%) | IKZF1 substrate protein remaining % (IKZF1): B (80%< substrate protein remaining % ≤100%) | IKZF3 substrate protein remaining % (IKZF3): B (80%< substrate protein remaining % ≤100%) | CK1α substrate protein remaining % (CK1α): B (80%< substrate protein remaining % ≤100%)

O=C1CCN(N2C(=O)c3ccc(CN4CCC(c5ccccc5C(F)(F)F)CC4)cc3C2=O)C(=O)N1 [GT-06879, 2-(2,4-dioxotetrahydropyrimidin-1(2H)-yl)-5-((4-(2-(trifluoromethyl)phenyl)piperidin-1-yl)methyl)isoindoline-1,3-dione]
WEE1 substrate protein remaining % (WEE1): B (80%< substrate protein remaining % ≤100%) | GSPT1 substrate protein remaining % (GSPT1): A (0% ≤ substrate protein remaining % ≤80%) | IKZF2 substrate protein remaining % (IKZF2): B (80%< substrate protein remaining % ≤100%) | IKZF1 substrate protein remaining % (IKZF1): B (80%< substrate protein remaining % ≤100%) | IKZF3 substrate protein remaining % (IKZF3): B (80%< substrate protein remaining % ≤100%) | CK1α substrate protein remaining % (CK1α): B (80%< substrate protein remaining % ≤100%)

O=C1CCN(N2C(=O)c3ccc(CN4CCC(C5CCOc6cc(F)ccc65)CC4)cc3C2=O)C(=O)N1 (stereo not drawn) [GT-07684, 2-(2,4-dioxotetrahydropyrimidin-1(2H)-yl)-5-((4-(7-fluorochroman-4-yl)piperidin-1-yl)methyl)isoindoline-1,3-dione]
WEE1 substrate protein remaining % (WEE1): B (80%< substrate protein remaining % ≤100%) | GSPT1 substrate protein remaining % (GSPT1): A (0% ≤ substrate protein remaining % ≤80%) | IKZF2 substrate protein remaining % (IKZF2): B (80%< substrate protein remaining % ≤100%) | IKZF1 substrate protein remaining % (IKZF1): B (80%< substrate protein remaining % ≤100%) | IKZF3 substrate protein remaining % (IKZF3): B (80%< substrate protein remaining % ≤100%) | CK1α substrate protein remaining % (CK1α): B (80%< substrate protein remaining % ≤100%)

O=C1CCN(N2C(=O)c3ccc(CN4CCN(C(c5ccccc5)c5cccnc5)CC4)cc3C2=O)C(=O)N1 (stereo not drawn) [GT-06377, 2-(2,4-dioxotetrahydropyrimidin-1(2H)-yl)-5-((4-(phenyl(pyridin-3-yl)methyl)piperazin-1-yl)methyl)isoindoline-1,3-dione]
WEE1 substrate protein remaining % (WEE1): A (0% ≤ substrate protein remaining % ≤80%) | GSPT1 substrate protein remaining % (GSPT1): B (80%< substrate protein remaining % ≤100%) | IKZF2 substrate protein remaining % (IKZF2): A (0% ≤ substrate protein remaining % ≤80%) | IKZF1 substrate protein remaining % (IKZF1): B (80%< substrate protein remaining % ≤100%) | IKZF3 substrate protein remaining % (IKZF3): B (80%< substrate protein remaining % ≤100%) | CK1α substrate protein remaining % (CK1α): B (80%< substrate protein remaining % ≤100%)

O=C1CCN(N2Cc3cc(CN4CCC(c5ccnc(Cl)c5Cl)CC4)ccc3C2=O)C(=O)N1 [GT-06390, 1-(5-((4-(2,3-dichloropyridin-4-yl)piperidin-1-yl)methyl)-1-oxoisoindolin-2-yl)dihydropyrimidine-2,4(1H,3H)-dione]
WEE1 substrate protein remaining % (WEE1): B (80%< substrate protein remaining % ≤100%) | GSPT1 substrate protein remaining % (GSPT1): A (0% ≤ substrate protein remaining % ≤80%) | IKZF2 substrate protein remaining % (IKZF2): B (80%< substrate protein remaining % ≤100%) | IKZF1 substrate protein remaining % (IKZF1): B (80%< substrate protein remaining % ≤100%) | IKZF3 substrate protein remaining % (IKZF3): B (80%< substrate protein remaining % ≤100%) | CK1α substrate protein remaining % (CK1α): B (80%< substrate protein remaining % ≤100%)

O=C1CCN(N2C(=O)c3ccc(CN4CCN(c5ccc(Cl)nc5)CC4)cc3C2=O)C(=O)N1 [GT-07027, 5-((4-(6-chloropyridin-3-yl)piperazin-1-yl)methyl)-2-(2,4-dioxotetrahydropyrimidin-1(2H)-yl)isoindoline-1,3-dione]
WEE1 substrate protein remaining % (WEE1): A (0% ≤ substrate protein remaining % ≤80%) | GSPT1 substrate protein remaining % (GSPT1): A (0% ≤ substrate protein remaining % ≤80%) | IKZF2 substrate protein remaining % (IKZF2): B (80%< substrate protein remaining % ≤100%) | IKZF1 substrate protein remaining % (IKZF1): B (80%< substrate protein remaining % ≤100%) | IKZF3 substrate protein remaining % (IKZF3): B (80%< substrate protein remaining % ≤100%) | CK1α substrate protein remaining % (CK1α): B (80%< substrate protein remaining % ≤100%)

O=C1CCN(N2C(=O)c3ccc(CN4CC5CCC(C4)N5C(c4ccccc4)c4ccccc4)cc3C2=O)C(=O)N1 [GT-06453, 5-((8-benzhydryl-3,8-diazabicyclo[3.2.1]octan-3-yl)methyl)-2-(2,4-dioxotetrahydropyrimidin-1(2H)-yl)isoindoline-1,3-dione]
WEE1 substrate protein remaining % (WEE1): B (80%< substrate protein remaining % ≤100%) | GSPT1 substrate protein remaining % (GSPT1): B (80%< substrate protein remaining % ≤100%) | IKZF2 substrate protein remaining % (IKZF2): A (0% ≤ substrate protein remaining % ≤80%) | IKZF1 substrate protein remaining % (IKZF1): B (80%< substrate protein remaining % ≤100%) | IKZF3 substrate protein remaining % (IKZF3): B (80%< substrate protein remaining % ≤100%) | CK1α substrate protein remaining % (CK1α): B (80%< substrate protein remaining % ≤100%)

O=C1CCN(N2Cc3cc(CN4CCC(N5CCCc6cc(F)ccc65)CC4)ccc3C2=O)C(=O)N1 [GT-07584, 1-(5-((4-(6-fluoro-3,4-dihydroquinolin-1(2H)-yl)piperidin-1-yl)methyl)-1-oxoisoindolin-2-yl)dihydropyrimidine-2,4(1H,3H)-dione]
WEE1 substrate protein remaining % (WEE1): A (0% ≤ substrate protein remaining % ≤80%) | GSPT1 substrate protein remaining % (GSPT1): A (0% ≤ substrate protein remaining % ≤80%) | IKZF2 substrate protein remaining % (IKZF2): B (80%< substrate protein remaining % ≤100%) | IKZF1 substrate protein remaining % (IKZF1): A (0% ≤ substrate protein remaining % ≤80%) | IKZF3 substrate protein remaining % (IKZF3): B (80%< substrate protein remaining % ≤100%) | CK1α substrate protein remaining % (CK1α): B (80%< substrate protein remaining % ≤100%)

Cc1sc2ncnc(N3CCN(Cc4ccc5c(c4)CN(N4CCC(=O)NC4=O)C5=O)CC3)c2c1C [GT-08061, 1-(5-((4-(5,6-dimethylthieno[2,3-d]pyrimidin-4-yl)piperazin-1-yl)methyl)-1-oxoisoindolin-2-yl)dihydropyrimidine-2,4(1H,3H)-dione]
WEE1 substrate protein remaining % (WEE1): B (80%< substrate protein remaining % ≤100%) | GSPT1 substrate protein remaining % (GSPT1): B (80%< substrate protein remaining % ≤100%) | IKZF2 substrate protein remaining % (IKZF2): A (0% ≤ substrate protein remaining % ≤80%) | IKZF1 substrate protein remaining % (IKZF1): B (80%< substrate protein remaining % ≤100%) | IKZF3 substrate protein remaining % (IKZF3): A (0% ≤ substrate protein remaining % ≤80%) | CK1α substrate protein remaining % (CK1α): B (80%< substrate protein remaining % ≤100%)
